{
  "source": "patent US9765049B2",
  "about": "“N-cycloalkyl-N-[(fusedphenyl)methylene]-(thio)carboxamide derivatives” (BAYER CROPSCIENCE AG, priority 2013, dated 2017)",
  "key": {"Pyricularia oryzae": {"tested_on": "Pyricularia oryzae", "format": "in vivo", "settings": "dose 500 ppm, rice plants, preventive spray, evaluated 6 days after inoculation"}, "Uromyces appendiculatus": {"tested_on": "Uromyces appendiculatus", "assay": "In vivo preventive test on Uromyces appendiculatus (bean rust)", "settings": "bean plants", "experimental": "(§1) Example G: In Vivo Preventive Test on Uromyces appendiculatus (Bean Rust) [table] The active ingredients are made soluble and homogenized in a mixture of Dimethyl sulfoxide/Acetone/Tween®80 and then diluted in water to the desired concentration. The young plants of bean are treated by spraying the active ingredient prepared as described above. Control plants are treated only with an aqueous solution of Acetone/Dimethyl sulfoxide/Tween® 80. After 24 hours, the plants are contaminated by spraying the leaves with an aqueous suspension of Uromyces appendiculatus spores."}, "Botrytis cinerea": {"tested_on": "Botrytis cinerea", "assay": "In vivo preventive test Botrytis cinerea (grey mould)", "settings": "gherkin plants", "experimental": "as §1, with “B:” for “G:”, “Botrytis cinerea (Grey Mould)” for “on Uromyces appendiculatus (Bean Rust)”, “gherkin” for “bean”, “Botrytis cinerea” for “Uromyces appendiculatus”, “spores. The contaminated gherkin plants are incubated for 4 to 5 days at 17° C. and at 90% relative humidity.” for “spores.”"}, "Sphaerotheca fuliginea": {"tested_on": "Sphaerotheca fuliginea", "assay": "In vivo preventive test on Sphaerotheca fuliginea (powdery mildew on cucurbits)", "settings": "500 ppm, gherkin plants, preventive spray, evaluated 15 days after inoculation", "experimental": "as §1, with “F:” for “G:”, “Sphaerotheca fuliginea (Powdery Mildew on Cucurbits)” for “Uromyces appendiculatus (Bean Rust)”, “gherkin” for “bean”, “Sphaerotheca fuliginea” for “Uromyces appendiculatus”"}, "[1]": {"tested_on": "Fusarium nivale (var. majus)", "assay": "Efficacy against Fusarium nivale (var. majus) (wheat), curative test", "format": "in vivo", "settings": "for Efficacy: evaluated 5 days after inoculation", "experimental": "Example I: Efficacy Against Fusarium nivale (Var. Majus) (Wheat) [table] To produce a suitable preparation of active compound, 1 part by weight of active compound or active compound combination is mixed with the stated amounts of solvent and emulsifier, and the concentrate is diluted with water to the desired concentration. […] After the spray coating has dried on, the plants remain in a greenhouse under translucent incubation cloches at a temperature of approximately 10° C. and a relative atmospheric humidity of approximately 100%."}, "Alternaria brassicae": {"tested_on": "Alternaria brassicae", "assay": "In vivo preventive test on Alternaria brassicae (leaf spot on radish)", "settings": "500 ppm, radish plants, preventive spray, evaluated 6 days after inoculation", "experimental": "as §1, with “A:” for “G:”, “Alternaria brassicae (Leaf Spot on Radish)” for “Uromyces appendiculatus (Bean Rust)”, “radish” for “bean”, “Alternaria brassicae” for “Uromyces appendiculatus”, “spores. The contaminated radish plants are incubated for 6 days at 20° C. and at 100% relative humidity.” for “spores.”"}, "Puccinia recondita": {"tested_on": "Puccinia recondita", "assay": "In vivo preventive test on Puccinia recondita (brown rust on wheat)", "settings": "500 ppm, wheat plants, preventive spray, evaluated 11 days after inoculation", "experimental": "as §1, with “C:” for “G:”, “Puccinia recondita (Brown Rust on Wheat)” for “Uromyces appendiculatus (Bean Rust)”, “wheat” for “bean”, “Puccinia recondita” for “Uromyces appendiculatus”"}, "Septoria tritici": {"tested_on": "Septoria tritici", "assay": "In vivo preventive test on Septoria tritici (wheat)", "settings": "500 ppm, wheat plants, preventive spray, evaluated 24 days after inoculation", "experimental": "as §1, with “E:” for “G:”, “Septoria tritici (Wheat)” for “Uromyces appendiculatus (Bean Rust)”, “wheat” for “bean”, “Septoria tritici” for “Uromyces appendiculatus”, “spores. The contaminated wheat plants are incubated for 72 hours at 18° C. and at 100% relative humidity and then for 21 days at 20° C. and at 90% relative humidity.” for “spores.”"}, "[2]": {"assay": "log P by HPLC on reversed-phase column (C 18), EEC Directive 79/831 Annex V.A8", "format": "physicochemical", "settings": "for logP: Table 1, HPLC, 40° C., 0.1% aqueous formic acid and acetonitrile", "experimental": "In table 1, the log P values were determined in accordance with EEC Directive 79/831 Annex V.A8 by HPLC (High Performance Liquid Chromatography) on a reversed-phase column (C 18), using the method described below: Temperature: 40° C.; Mobile phases: 0.1% aqueous formic acid and acetonitrile; linear gradient from 10% acetonitrile to 90% acetonitrile. Calibration was carried out using unbranched alkan-2-ones (comprising 3 to 16 carbon atoms) with known log P values (determination of the log P values by the retention times using linear interpolation between two successive alkanones). lambda-max-values were determined using UV-spectra from 200 nm to 400 nm and the peak values of the chromatographic signals."}, "Pyrenophora teres": {"tested_on": "Pyrenophora teres", "assay": "In vivo preventive test on Pyrenophora teres (net blotch on barley)", "settings": "500 ppm, barley plants, preventive spray, evaluated 14 days after inoculation", "experimental": "as §1, with “D:” for “G:”, “Pyrenophora teres (Net Blotch on Barley)” for “Uromyces appendiculatus (Bean Rust)”, “barley” for “bean”, “Pyrenophora teres” for “Uromyces appendiculatus”"}, "[3]": {"settings": "Table B, 500 ppm, preventive spray, evaluated 4 to 5 days after inoculation"}, "[4]": {"settings": "Table G, 500 ppm, preventive spray, evaluated 11 days after inoculation"}},
  "note": "Read-outs that look alike come from different tables or passages of the source.",
  "data": [
    {"smiles": "Cn1nc(C(F)F)c(C(=O)N(Cc2cccc3c2C2CCC3C2)C2CC2)c1F", "note": "(stereo not drawn) [I.01]", "values": [
      {"measurement": "Efficacy", "setting": "Pyricularia oryzae", "value": 75, "unit": "%"},
      {"measurement": "Efficacy", "setting": "Pyricularia oryzae; listed as 1.01", "value": "at least 70%"},
      {"measurement": "Efficacy", "setting": "Uromyces appendiculatus; Table G2, dose 100 ppm", "value": 99, "unit": "%"},
      {"measurement": "Efficacy", "setting": "Uromyces appendiculatus; Table G2, dose 100 ppm, listed as 1.01", "value": "at least 95%"},
      {"measurement": "Efficacy", "setting": "Botrytis cinerea; Table B2, dose 100 ppm", "value": 98, "unit": "%"},
      {"measurement": "Efficacy", "setting": "Botrytis cinerea; Table B2, dose 500 ppm", "value": "100/100"},
      {"measurement": "Efficacy", "setting": "Botrytis cinerea; [3]", "value": 100, "unit": "%"},
      {"measurement": "protection", "setting": "Botrytis cinerea; dose of 100 ppm and 500 ppm", "value": "at least 98%"},
      {"measurement": "Efficacy", "setting": "Sphaerotheca fuliginea", "value": 100, "unit": "%"},
      {"measurement": "Efficacy", "setting": "[1]; dose 250 ppm", "value": 100, "unit": "%"},
      {"measurement": "Efficacy", "setting": "[1]; dose 500 ppm", "value": 100, "unit": "%"},
      {"measurement": "protection", "setting": "[1]; dose of 250 ppm and 500 ppm", "value": "total protection"},
      {"measurement": "Efficacy", "setting": "Alternaria brassicae", "value": 81, "unit": "%"},
      {"measurement": "Efficacy", "setting": "Puccinia recondita", "value": 98, "unit": "%"},
      {"measurement": "Efficacy", "setting": "Septoria tritici", "value": 100, "unit": "%"},
      {"measurement": "logP", "setting": "[2]", "value": 3.87},
      {"measurement": "Efficacy", "setting": "Pyrenophora teres", "value": 100, "unit": "%"}
    ]},
    {"smiles": "Cn1nc(C(F)F)c(C(=S)N(Cc2cccc3c2C2CCC3C2)C2CC2)c1F", "note": "(stereo not drawn) [I.02]", "values": [
      {"measurement": "Efficacy", "setting": "Uromyces appendiculatus; [4]", "value": 100, "unit": "%"},
      {"measurement": "Efficacy", "setting": "Botrytis cinerea; [3]", "value": 97, "unit": "%"},
      {"measurement": "Efficacy", "setting": "Sphaerotheca fuliginea", "value": 100, "unit": "%"},
      {"measurement": "Efficacy", "setting": "Alternaria brassicae", "value": 79, "unit": "%"},
      {"measurement": "Efficacy", "setting": "Puccinia recondita", "value": 97, "unit": "%"},
      {"measurement": "Efficacy", "setting": "Septoria tritici", "value": 100, "unit": "%"},
      {"measurement": "logP", "setting": "[2]", "value": 4.64}
    ]},
    {"smiles": "Cn1nc(C(F)F)c(C(=O)N(Cc2cccc3c2C2C=CC3C2)C2CC2)c1F", "note": "(stereo not drawn) [I.04]", "values": [
      {"measurement": "Efficacy", "setting": "Botrytis cinerea; [3]", "value": 97, "unit": "%"},
      {"measurement": "Efficacy", "setting": "Sphaerotheca fuliginea", "value": 100, "unit": "%"},
      {"measurement": "Efficacy", "setting": "Alternaria brassicae", "value": 83, "unit": "%"},
      {"measurement": "Efficacy", "setting": "Septoria tritici", "value": 98, "unit": "%"},
      {"measurement": "logP", "setting": "[2]", "value": 3.55},
      {"measurement": "Efficacy", "setting": "Pyrenophora teres", "value": 100, "unit": "%"}
    ]},
    {"smiles": "Cn1cc(C(=O)N(Cc2cccc3c2C2CCC3C2=C(Cl)Cl)C2CC2)c(C(F)F)n1", "note": "(stereo not drawn) [I.07]", "values": [
      {"measurement": "Efficacy", "setting": "Sphaerotheca fuliginea", "value": 98, "unit": "%"},
      {"measurement": "Efficacy", "setting": "Alternaria brassicae", "value": 97, "unit": "%"},
      {"measurement": "Efficacy", "setting": "Septoria tritici", "value": 97, "unit": "%"},
      {"measurement": "logP", "setting": "[2]", "value": 4.13},
      {"measurement": "Efficacy", "setting": "Pyrenophora teres", "value": 97, "unit": "%"}
    ]},
    {"smiles": "Cn1nc(C(F)F)c(C(=O)N(Cc2cccc3c2C2CCC3C2=C(Cl)Cl)C2CC2)c1F", "note": "(stereo not drawn) [I.08, N-cyclopropyl-N-([9-(dichloromethylene)-1,2,3,4-tetrahydro-1,4-methanonaphthalen-5-yl]methyl)-3-(difluoromethyl)-5-fluoro-1-methyl-1H-pyrazole-4-carboxamide]", "values": [
      {"measurement": "Efficacy", "setting": "Botrytis cinerea; [3]", "value": 100, "unit": "%"},
      {"measurement": "Efficacy", "setting": "Sphaerotheca fuliginea", "value": 100, "unit": "%"},
      {"measurement": "Efficacy", "setting": "Alternaria brassicae", "value": 100, "unit": "%"},
      {"measurement": "Efficacy", "setting": "Puccinia recondita", "value": 83, "unit": "%"},
      {"measurement": "Efficacy", "setting": "Septoria tritici", "value": 100, "unit": "%"},
      {"measurement": "chromatographic logP", "setting": "[2]", "value": 4.51},
      {"measurement": "Efficacy", "setting": "Pyrenophora teres", "value": 97, "unit": "%"}
    ]},
    {"smiles": "Cn1nc(C(F)F)c(C(=S)N(Cc2cccc3c2C2CCC3C2=C(Cl)Cl)C2CC2)c1F", "note": "(stereo not drawn) [I.11]", "values": [
      {"measurement": "Efficacy", "setting": "Uromyces appendiculatus; [4]", "value": 84, "unit": "%"},
      {"measurement": "Efficacy", "setting": "Botrytis cinerea; [3]", "value": 100, "unit": "%"},
      {"measurement": "Efficacy", "setting": "Sphaerotheca fuliginea", "value": 100, "unit": "%"},
      {"measurement": "Efficacy", "setting": "Puccinia recondita", "value": 88, "unit": "%"},
      {"measurement": "Efficacy", "setting": "Septoria tritici", "value": 100, "unit": "%"},
      {"measurement": "logP", "setting": "[2]", "value": 5.23}
    ]}
  ]
}
